{"source": "patent US20140094484A1", "about": "“SUSTAINED DELIVERY FORMULATIONS OF RAPAMYCIN COMPOUNDS” (QLT Inc., priority 2012, published 2014)", "key": {"mTOR": {"system": "mTOR", "experiment": "Pharmacodynamic evaluation: Ser235/236 phosphorylation of S6 ribosomal protein in chorioretinal tissues (western blot)", "type": "in vivo, Long Evans rats", "experimental": "Upon euthanasia of the animal, the eyes were cut along the equator, separating the anterior and posterior segments. The vitreous was removed and the remaining back of eye (with intact retina, choroid and sclera) was placed in a labeled Nalgene Cryotube, immediately immersed in liquid nitrogen, and stored at −80° C. until ready to use. Upon lysis, tubes containing tissue were brought to room temperature to thaw. Tissues were lysed in 400 μL of lysis buffer (Cell Signaling CAT #: 9803) with protease inhibitor cocktail (Calbiochem CAT #: 539131) and beads in Matrix D Tubes (Q-biogene, CAT #: 6913-100) in the Fast Prep Instrument. Protein concentration of each sample was determined using the Pierce BCA Protein Determination Kit (Pierce, CAT #: 23225) and BSA as a standard. Samples were analyzed by SDS-PAGE, followed by western blotting. Primary antibodies included antibodies against phosphorylated S6 ribosomal protein, S6 ribosomal protein, and beta-actin antibody. Secondary antibodies included goat anti-Rabbit HRP linked antibodies, or Goat anti-Mouse HRP linked antibodies. Bound antibodies were detected using ECL or ECL plus Western Blotting Reagents. Densitometric evaluation was performed on blots scanned by Bio-Rad Multi-Analyst Software, and analyzed in MS Excel and GraphPad Prism.\nRapamycin inhibits mTOR activity, which then down-regulates Ser235/236 phosphorylation of the downstream target of mTOR, the S6 ribosomal protein. In order to evaluate the pharmacodynamic response of intravitreally administered rapamycin in the eye, the serine phosphorylation of S6 protein extracted from chorioretinal tissues was analyzed by western blot, and standardized by the total amount of S6 protein. […] The inhibitory effect of rapamycin on S6 phosphorylation occurred within the first 24 h and lasted for 7 days post-dosing, the longest follow-up timepoint."}, "[1]": {"system": "choroidal neovascularization (CNV)", "experiment": "Laser-induced CNV rat model, histological evaluation (CNV area, CD31 positive cell count)", "type": "in vivo, Long Evans rats", "experimental": "(§1) Thermal laser infrared light (diode laser 810 nm) at 200 mW for 0.075 seconds was delivered to the fundus of Long Evans rats using a slit lamp and a slit lamp adaptor. A total of 6 lesions with 75 μm diameter were placed in a circular pattern surrounding the optic disc on the posterior pole.\nIntravitreal injection was performed immediately after laser photocoagulation. Briefly, three days prior to the injection, 0.3% Ciloxan ointment was applied to the eye once daily. At the time of injection, the eye pocket was irrigated and the conjunctiva swabbed with 1.0% Betadine solution. […] The injection began when the bevel of the needle faced down and reached the vitreous about 1-2 mm in depth with the visual aid of a dissecting microscope. After injection, topical 0.3% Ciloxan ointment was applied to the eye once daily for 2 days.\nEyes were enucleated and chorioretinal tissues that contained the CNV lesions prepared and fixed for about 18 hours in formic acid alcohol, and then replaced with 70% alcohol until the specimen was processed to wax by a standard method. Slides were stained with mouse anti rat CD31 (Chemicon, UK) by a standard immunohistochemistry protocol. This briefly consisted of removal of endogenous peroxidase enzymes with methanol and hydrogen peroxide, primary antibody as above, and the secondary donkey antibody anti mouse conjugated to biotin. Streptavidin ABC and Vector VIP substrate (Vector labs, Burlingame Calif.) were further added. Haematoxylin was used as a counterstain. Representative images before and after the center of each CNV lesion were taken using the 20× objective of an Olympus BX61 microscope fitted with a Spot RT colour camera (Diagnostic instruments, MI USA). Each image was applied to the standard image analysis macro in the software Image pro to identify the mean of lesion area for each CNV and the mean of CD31 positive cell counts (i.e. endothelial cells) within the CNV lesion area. All measurements were generated by two independent readers masked to the treatments. The data was analyzed in Excel and GraphPad Prism. The 80% correlation found between readers was deemed acceptable."}, "[2]": {"system": "Human umbilical endothelial cells", "experiment": "VEGF-activated endothelial cell proliferation, [3H]-thymidine incorporation", "type": "cell-based", "conditions": "[3H]-thymidine incorporation after 48 hours", "experimental": "(§2) Targeted tissue concentrations were estimated from in vitro experiments assessing the inhibitory effects of rapamycin on endothelial cell proliferation and cytokine release from immune cells. Human umbilical endothelial cells were activated with Vascular Endothelial Growth Factor (VEGF) and incubated with various concentrations of rapamycin. Cell proliferation was evaluated by quantifying [3}H-thymidine incorporation after 48 hours. […] The IC50 for the release of TNFalpha from Lipopolysaccharide and IFNgamma treated THP-1 cells (monocytic cell line) was ˜1 nM and the IC50 for the release of IFNgamma from human peripheral blood T cells stimulated with phytohemagglutanin was ˜2 nM."}, "[3]": {"system": "human peripheral blood T cells", "experiment": "IFNgamma release from T cells stimulated with phytohemagglutanin", "type": "cell-based", "conditions": "T-cell", "experimental": "as §2"}, "[4]": {"system": "choroidal neovascularization (CNV)", "experiment": "Laser-induced CNV rat model, fluorescein angiography evaluation", "type": "in vivo, Long Evans rats", "conditions": "for effect on CNV development: intravitreal injection immediately after laser photocoagulation", "experimental": "as §1\nIntravitreal injection was performed immediately after laser photocoagulation. Briefly, three days prior to the injection, 0.3% Ciloxan ointment was applied to the eye once daily. At the time of injection, the eye pocket was irrigated and the conjunctiva swabbed with 1.0% Betadine solution. A 30-gauge needle connected to a […], Hamilton syringe that contained 5 μL carboxymethylcellulose (CMC)-based Rapamycin suspension (0.5, 5, 10 or 40 mg/mL) or CMC vehicle alone was inserted 1 mm posterior to the corneoscleral limbus. The injection began when the bevel of the needle faced down and reached the vitreous about 1-2 mm in depth with the visual aid of a dissecting microscope. After injection, topical 0.3% Ciloxan ointment was applied to the eye once daily for 2 days.\nFA was performed on the 14th day after intravitreal injection of Rapamycin. Briefly, a 25-gauge butterfly catheter was placed in the tail vein on an anesthetized animal and a Heparin-Lock solution (0.50 mL of 10,000 IU/mL Heparin Sodium with 0.95 mL 0.9% Saline) was used to fill the catheter line to maintain intravenous access. A dose of 10 mg/kg of Diofluor 10% (Fluorescein Sodium 10%) was delivered through the tail vein, followed by a flush of sterile saline to ensure full delivery of Diofluor 10%. An infusion pump (Becton-Dickinson) connected to a 60 cc syringe was used to infuse the Diofluor 10% at a constant rate of 6 mL/min (8.4-13.2 pounds per square inches) to allow for consistency in the synchronization of the fluorescein bolus injection and the angiogram acquisition. Photographs were taken with a fluorescence fundus camera at 1-10, 30, 60, 90, 180, and 300 sec after Diofluor 10% administration. The leakiness of CNV was assessed by two independent readers masked to the treatment."}, "[5]": {"system": "THP-1 cells (monocytic cell line)", "experiment": "TNFalpha release from Lipopolysaccharide and IFNgamma treated THP-1 cells", "type": "cell-based", "conditions": "Homo sapiens", "experimental": "as §2"}}, "note": "“Also recorded” adds a separate entry of the source."}
{"smiles": "CO[C@H]1C[C@@H]2CC[C@@H](C)[C@@](O)(O2)C(=O)C(=O)N2CCCC[C@H]2C(=O)O[C@H]([C@H](C)C[C@@H]2CC[C@@H](O)[C@H](OC)C2)CC(=O)[C@H](C)/C=C(\\C)[C@@H](O)[C@@H](OC)C(=O)[C@H](C)C[C@H](C)/C=C/C=C/C=C/1C", "note": "[rapamycin, Rapamycin]", "values": [{"measurement": "level of phosphorylated Ser235/236 on S6 ribosomal protein, standardized by total S6 protein", "setting": "mTOR; intravitreal, chorioretinal tissues, day 1, 3, 7 post-dosing, vs untreated or vehicle injected eyes", "value": "significantly reduced"}, {"measurement": "time within which the inhibitory effect on S6 phosphorylation occurred", "setting": "mTOR; intravitreal, rat", "value": "≤ 24", "unit": "h"}, {"measurement": "time the inhibitory effect on S6 phosphorylation lasted post-dosing", "setting": "mTOR; intravitreal, rat, longest follow-up timepoint", "value": 7, "unit": "days"}, {"measurement": "activation of its target mTOR", "setting": "mTOR; rat model of laser-induced CNV", "value": "suppressed the activation of its target mTOR at all tested time points"}, {"measurement": "reduction in CNV area compared to the vehicle group", "setting": "[1]; 0.5 μg intravitreal", "value": 15, "unit": "%"}, {"measurement": "reduction in CNV area compared to the vehicle group", "setting": "[1]; 5 μg intravitreal", "value": 55, "unit": "%"}, {"measurement": "reduction in CNV area compared to the vehicle group", "setting": "[1]; 50 μg intravitreal", "value": 50, "unit": "%"}, {"measurement": "overall reduction in the number of endothelial cells within the CNV area compared to the vehicle group", "setting": "[1]; 50 μg, 5 μg and 0.5 μg intravitreal", "value": "50-60%"}, {"measurement": "CNV area and number of endothelial cells in the CNV lesions after treatment", "setting": "[1]; intravitreal 50, 5, 0.5 μg", "value": "reduced after rapamycin treatment in a dose-dependent manner"}, {"measurement": "IC50", "setting": "[2]", "value": 69, "unit": "nM"}, {"measurement": "IC50", "setting": "[3]", "value": "~2", "unit": "nM"}, {"measurement": "response in the rat CNV model", "setting": "[4]; 5 μg intravitreally injected", "value": "nearly a complete response"}, {"measurement": "effect on CNV development", "setting": "[4]; rat", "value": "dose dependent inhibition of CNV development"}, {"measurement": "effect on CNV development", "setting": "[4]; rat, listed as Rapamycin", "value": "potent inhibitor of CNV; also recorded: inhibited the development of CNV"}, {"measurement": "incidence of developing leaky CNV 2 weeks after laser photocoagulation", "setting": "[4]; single intravitreal injection of 0.5 μg rapamycin in CMC, rat", "value": 65, "unit": "%"}, {"measurement": "incidence of developing leaky CNV 2 weeks after laser photocoagulation", "setting": "[4]; single intravitreal injection of 5 μg rapamycin in CMC, rat", "value": 5, "unit": "%"}, {"measurement": "incidence of developing leaky CNV 2 weeks after laser photocoagulation", "setting": "[4]; single intravitreal injection of 50 μg rapamycin in CMC, rat", "value": 2, "unit": "%"}, {"measurement": "IC50", "setting": "[5]", "value": "~1", "unit": "nM"}]}
{"smiles": "CC1(C)O[C@@H]2C[C@H]3[C@@H]4CCC5=CC(=O)C=C[C@]5(C)[C@@]4(F)[C@@H](O)C[C@]3(C)[C@]2(C(=O)CO)O1", "note": "[triamcinolone acetonide (TA), triamcinolone acetonide]", "values": [{"measurement": "inhibition of CNV area", "setting": "[1]; TA intravitreal 200 μg", "value": "approximately 50%"}, {"measurement": "inhibition of endothelial cell count", "setting": "[1]; TA intravitreal 200 μg", "value": "~60", "unit": "%"}, {"measurement": "incidence of leaky CNV at the 14-day follow-up", "setting": "[4]; intravitreal dose of 200 μg, rat", "value": 10, "unit": "%"}]}
